Results: ChEMBL document CHEMBL1135957, “Novel 1',1'-chain substituted Delta(8)-tetrahydrocannabinols” (Bioorg Med Chem Lett, 2002)

What was measured:
Cannabinoid receptor 2 = Cannabinoid receptor 2 (Mus musculus, UniProt P47936); experiment: Binding affinity for Cannabinoid receptor 2 by the ability to displace radiolabeled CP-55940 from mouse spleen synaptosomes; assay type: subcellular
Cannabinoid receptor 1 = Cannabinoid receptor 1 (Rattus norvegicus, UniProt P20272); experiment: Binding affinity for Cannabinoid receptor 1 by the ability to displace radiolabeled CP-55940 from purified rat forebrain synaptosomes; assay type: subcellular, Brain
Sequence of Cannabinoid receptor 1 (P20272 whole entry): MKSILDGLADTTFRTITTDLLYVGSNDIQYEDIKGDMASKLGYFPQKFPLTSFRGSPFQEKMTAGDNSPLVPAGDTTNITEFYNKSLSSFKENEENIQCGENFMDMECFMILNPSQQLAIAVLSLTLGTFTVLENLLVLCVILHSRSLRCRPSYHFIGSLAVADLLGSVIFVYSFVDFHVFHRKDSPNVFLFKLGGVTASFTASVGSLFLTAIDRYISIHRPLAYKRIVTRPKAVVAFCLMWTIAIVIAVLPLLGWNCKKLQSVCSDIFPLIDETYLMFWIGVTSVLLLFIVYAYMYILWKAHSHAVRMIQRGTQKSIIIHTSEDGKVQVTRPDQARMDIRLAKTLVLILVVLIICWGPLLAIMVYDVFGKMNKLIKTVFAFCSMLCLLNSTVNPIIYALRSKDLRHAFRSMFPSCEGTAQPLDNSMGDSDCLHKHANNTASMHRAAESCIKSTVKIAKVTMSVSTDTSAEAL

Sequence of Cannabinoid receptor 2 (P47936 whole entry): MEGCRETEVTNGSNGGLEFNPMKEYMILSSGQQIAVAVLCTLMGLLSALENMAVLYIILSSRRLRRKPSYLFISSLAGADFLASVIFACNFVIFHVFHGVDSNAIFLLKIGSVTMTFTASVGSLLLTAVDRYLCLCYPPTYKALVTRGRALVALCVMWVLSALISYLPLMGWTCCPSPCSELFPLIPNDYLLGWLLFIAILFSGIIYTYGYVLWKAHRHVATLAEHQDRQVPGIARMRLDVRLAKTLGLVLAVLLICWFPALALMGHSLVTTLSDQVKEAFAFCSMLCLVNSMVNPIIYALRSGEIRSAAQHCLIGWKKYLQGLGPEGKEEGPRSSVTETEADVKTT

CCCCCCC1(c2cc(O)c3c(c2)OC(C)(C)[C@@H]2CC=C(C)C[C@@H]32)CC1
Ki (Cannabinoid receptor 2): 0.86 nM | Ki (Cannabinoid receptor 1): 0.44 nM

CCCCCCC1(c2cc(O)c3c(c2)OC(C)(C)[C@@H]2CC=C(C)C[C@@H]32)CC1(Br)Br (some centres not stated)
Ki (Cannabinoid receptor 2): 1 nM | Ki (Cannabinoid receptor 1): 0.71 nM

C=C(C)C1CCC(C)=CC1c1c(O)cc(C2(CCCCCC)CC2(Br)Br)cc1O (configuration not stated)
Ki (Cannabinoid receptor 2): 63 nM | Ki (Cannabinoid receptor 1): 189 nM

C=C(C)C1CCC(C)=CC1c1c(O)cc(C2(CCCCCC)CC2(Cl)Cl)cc1O (configuration not stated)
Ki (Cannabinoid receptor 2): 33 nM | Ki (Cannabinoid receptor 1): 665 nM

CCCCCCC(C)(C)c1cc(O)c2c(c1)OC(C)(C)[C@@H]1CC=C(C)C[C@@H]21
Ki (Cannabinoid receptor 2): 0.49 nM | Ki (Cannabinoid receptor 1): 0.83 nM

C=C(C)[C@@H]1CCC(C)=C[C@H]1c1c(O)cc(CCCCC)cc1O [CANNABIDIOL]
Ki (Cannabinoid receptor 2): 230 nM

CCCCCCC1(c2cc(O)c3c(c2)OC(C)(C)[C@@H]2CC=C(C)C[C@@H]32)CC1(Cl)Cl (some centres not stated)
Ki (Cannabinoid receptor 2): 0.29 nM | Ki (Cannabinoid receptor 1): 1.27 nM

C=C(C)C1CCC(C)=CC1c1c(O)cc(C2(CCCCCC)CC2)cc1O (configuration not stated)
Ki (Cannabinoid receptor 2): 99 nM | Ki (Cannabinoid receptor 1): 59 nM

C=C(C)C1CCC(C)=CC1c1c(O)cc(C2(CCCCCC)SCCS2)cc1O (configuration not stated)
Ki (Cannabinoid receptor 2): 50 nM | Ki (Cannabinoid receptor 1): 136 nM
